Laboratory results reported in ChEMBL document CHEMBL4627275, “Inhibition of cholesteryl ester synthesis by polyacetylenes from Atractylodes rhizome” (Bioorg Med Chem Lett, 2020).
Activity calls are given as the source filed them. The calls are words filed in the database; no cut-off is given here.

How the values were obtained:
[1] = test system: CHO-K1; experiment: Effect on lipid droplet accumulation in CHOK1 cells at >100 uM preincubated with oleic acid for 12 hrs followed by replacement of fresh medium containing compounds and measured after 6 hrs by oil red O staining based confocal laser scanning microscopy; format: functional, cell-based; settings: Cricetulus griseus
[2] = biological target: T1, Sterol O-acyltransferase 2 (Homo sapiens, UniProt O75908); experiment: Inhibition of human SOAT2-mediated [14C]Cholesterol ester biosynthesis in CHO microsomal fraction after 5 mins in presence of [1-14C]oleoyl-CoA by TLC analysis
T1 sequence (O75908 whole entry): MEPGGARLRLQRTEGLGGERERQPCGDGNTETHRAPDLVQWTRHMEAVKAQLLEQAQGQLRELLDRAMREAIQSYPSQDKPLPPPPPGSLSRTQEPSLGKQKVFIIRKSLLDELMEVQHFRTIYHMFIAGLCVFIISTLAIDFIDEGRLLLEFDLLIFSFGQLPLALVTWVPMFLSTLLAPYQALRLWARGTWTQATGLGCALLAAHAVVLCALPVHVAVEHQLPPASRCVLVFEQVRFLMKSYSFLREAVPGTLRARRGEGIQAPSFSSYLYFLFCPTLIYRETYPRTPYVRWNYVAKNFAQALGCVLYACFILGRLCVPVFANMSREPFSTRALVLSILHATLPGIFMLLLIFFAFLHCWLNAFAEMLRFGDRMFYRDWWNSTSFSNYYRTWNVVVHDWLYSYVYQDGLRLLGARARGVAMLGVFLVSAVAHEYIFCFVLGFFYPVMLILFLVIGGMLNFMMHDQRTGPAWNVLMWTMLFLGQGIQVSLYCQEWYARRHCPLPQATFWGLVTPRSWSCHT

[3] = test system: CHO-K1; experiment: Cytotoxicity against CHOK1 cells assessed as reduction in cell viability; format: cell-based; settings: Cricetulus griseus
[4] = test system: CHO-K1; experiment: Inhibition of [14C]cholesterol ester biosynthesis in CHOK1 cells using [14C]Oleic acid as substrate after 6 hrs by TLC method; format: functional, cell-based; settings: Cricetulus griseus, CHO-K1, 6 h
[5] = biological target: T1, Sterol O-acyltransferase 2; experiment: Inhibition of human SOAT2-mediated [14C]Cholesterol ester synthesis in CHO cells after 6 hrs in presence of [14C]Oleic acid by TLC analysis; format: cell-based
[6] = test system: CHO-K1; experiment: Inhibition of [14C]triglyceride biosynthesis in CHOK1 cells using [14C]Oleic acid as substrate after 6 hrs by TLC method; format: functional, cell-based; settings: Cricetulus griseus, CHO-K1, 6 h
[7] = (§1) Inhibition of SOAT in CHOK1 microsomes; set-up: species or system Cricetulus griseus; settings: cho-k1
[8] = biological target: T2, Sterol O-acyltransferase 1 (Homo sapiens, UniProt P35610); experiment: Inhibition of human SOAT1 mediated [14C]Cholesterol ester synthesis in CHO cells after 6 hrs in presence of [14C]Oleic acid by TLC analysis; format: cell-based
T2 sequence (P35610 whole entry): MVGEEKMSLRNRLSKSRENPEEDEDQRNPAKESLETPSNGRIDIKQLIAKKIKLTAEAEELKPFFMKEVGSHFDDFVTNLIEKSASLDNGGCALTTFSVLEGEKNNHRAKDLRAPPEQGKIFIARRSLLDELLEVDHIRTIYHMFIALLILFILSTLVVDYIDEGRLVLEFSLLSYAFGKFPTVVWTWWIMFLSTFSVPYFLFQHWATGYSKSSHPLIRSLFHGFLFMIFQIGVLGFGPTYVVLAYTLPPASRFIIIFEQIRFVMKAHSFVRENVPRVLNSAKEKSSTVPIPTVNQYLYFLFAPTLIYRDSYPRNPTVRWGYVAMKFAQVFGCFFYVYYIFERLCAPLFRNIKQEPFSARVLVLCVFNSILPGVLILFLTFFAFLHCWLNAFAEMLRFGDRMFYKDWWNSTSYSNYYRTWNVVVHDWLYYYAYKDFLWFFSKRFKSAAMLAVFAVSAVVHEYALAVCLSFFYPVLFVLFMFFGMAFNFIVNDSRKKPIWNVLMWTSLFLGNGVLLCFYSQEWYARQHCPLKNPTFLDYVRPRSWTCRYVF

[9] = biological target: T2, Sterol O-acyltransferase 1; experiment: Inhibition of human SOAT1-mediated [14C]Cholesterol ester biosynthesis in CHO microsomal fraction after 5 mins in presence of [1-14C]oleoyl-CoA by TLC analysis
[10] = test system: CHO-K1; experiment: as §1; settings: Cricetulus griseus

Row | Compound | Activity [1] | IC50 [2] [µM] | IC50 [3] [µM] | IC50 [4] [µM] | IC50 [5] [µM] | IC50 [6] [µM] | IC50 [7] [µM] | IC50 [8] [µM] | IC50 [9] [µM] | inhibition [10]
1 | C=C1CCC[C@]2(C)C[C@]3(O)OC(=O)C(C)=C3C[C@@H]12 [ATRACTYLENOLIDE III] | inactive | 101 | > 195 | 73.5 | 187 | > 195 | 211 | – | – | –
2 | CC(=O)OCCC(/C=C/C=C/C#CC#C/C=C/CO)OC(=O)C=C(C)C (configuration not stated) | inactive | 11.5 | 111 | 35.4 | 36.2 | > 136 | 29 | 32.8 | 4.7 | Dose-dependent effect
